This passage reports TGI results from PubChem BioAssay (NCI).

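Values below derive from 48-hour exposures of cells grown in 96-well plates, with endpoints linearly interpolated between the two concentrations bracketing the appropriate inhibition level. At the TGI there is no net growth.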

Common to all, as to test: growth of human tumour cells (NCI), 48 h
In experiment [1] the test system is 786-0 renal.
The subject of experiment [2] is A498 renal.
Experiment [3] relates to DU-145 prostate.
For experiment [4], the system named is EKVX NSCLC.
In experiment [5] the test system is HL-60(TB) leukemia.
The subject of experiment [6] is HS 578T breast.
In experiment [7] the test system is HT29 colon.
The test system of experiment [8] is KM12 colon.
Experiment [9] has as its system MCF7 breast.
In experiment [10] the test system is NCI/ADR-RES ovarian.
In experiment [11] the test system is OVCAR-8 ovarian.
Experiment [12] deals with RPMI-8226 leukemia.
The subject of experiment [13] is SF-295 CNS.
Experiment [14] has as its system SNB-19 CNS.
The test system of experiment [15] is SNB-75 CNS.
Experiment [16] deals with SR leukemia.
The test system of experiment [17] is TK-10 renal.
Experiment [18] relates to UACC-62 melanoma.
The test system of experiment [19] is NCI-H522 lung.
For experiment [20], the system named is SK-MEL-2 melanoma.

`Cc1[nH]c2nccn2c(=O)c1CCO`: the TGI in [1], in experiment [2], in experiment [3], in [4], in [5] and in experiment [6] was greater than 10 µM throughout. Further, the TGI in experiment [7], in experiment [8], in experiment [9], in experiment [10], in experiment [11] and in experiment [12] was greater than 10 µM each time. In addition, the TGI in experiment [13], in experiment [14], in experiment [15], in experiment [16], in experiment [17] and in [18] was greater than 10 µM throughout.

For the molecule `CCOC(=O)c1cc(C)nc2c1c(=O)n(-c1ccccc1)c(=O)n2CCCCN1CCN(c2ncccn2)CC1`, the TGI in experiment [1] is greater than 100 µM; in [2], greater than 100 µM; in [3], greater than 100 µM; in experiment [4] it was greater than 100 µM; in experiment [5] it was 57.1 µM; in experiment [6], greater than 100 µM. Also, the TGI in experiment [7], in experiment [8], in experiment [9], in experiment [19], in [10] and in [11] was greater than 100 µM each time. The TGI in [12], in [13], in experiment [20], in experiment [15], in experiment [16] and in experiment [17] was greater than 100 µM throughout. In experiment [18], this molecule gave a TGI greater than 100 µM.

As for `CC(C)(C)OC(=O)N1N=CCC1c1ccccc1` (stereo not drawn), the TGI in [1], in [2], in experiment [3], in experiment [4], in [5] and in experiment [6] was greater than 100 µM each time. Besides, the TGI in [7], in experiment [8], in experiment [9], in experiment [19], in experiment [10] and in experiment [11] was greater than 100 µM in each case. The TGI in experiment [12], in [13], in experiment [15], in experiment [16], in experiment [17] and in [18] was greater than 100 µM throughout.

In the case of `CN1C(=O)C23CCCC2CC1(c1ccccc1)S3` (stereo not drawn), the TGI in experiment [1], in [2], in [3], in experiment [4], in [5] and in experiment [6] was greater than 100 µM in each case. Further, the TGI in experiment [7], in experiment [8], in experiment [9], in experiment [19], in experiment [10] and in [11] was greater than 100 µM in each case. For the same molecule, the TGI in experiment [12], in experiment [13], in experiment [20], in experiment [14], in [16] and in experiment [17] was greater than 100 µM in each case. Also, the TGI in experiment [18] is greater than 100 µM.

In the case of `C=CCOC(=O)Cn1ccc(=O)[nH]c1=O`, the TGI in [1], in experiment [2], in experiment [3], in experiment [4], in experiment [5] and in [6] was greater than 100 µM each time. In addition, the TGI in experiment [7], in experiment [8], in experiment [9], in experiment [10], in experiment [11] and in [12] was greater than 100 µM in each case. Further, the TGI in experiment [13], in experiment [20], in [14], in [15], in experiment [16] and in [17] was greater than 100 µM in each case. In addition, the TGI in [18] is greater than 100 µM.

On to `C(=N\NC1=NCCN1)/c1ccc2ccccc2c1`, for which the TGI was 26.3 µM in experiment [1]; 28.9 µM in experiment [2]; greater than 100 µM in experiment [3]; 50.8 µM in experiment [4]; 34.5 µM in experiment [5]; 43.3 µM in experiment [6]. Also, the TGI in [7] turned out to be 30.4 µM; in experiment [8] it was 28 µM; in experiment [9], 32.3 µM; in [19] it was 29.6 µM; in [10] it was 39.4 µM; in experiment [11], 35 µM. Besides, the TGI in experiment [12] was 49.4 µM; in [13] it was 29.9 µM; in experiment [20], 38 µM; in experiment [15], greater than 100 µM; in experiment [16] it was greater than 100 µM; in experiment [17], 26.4 µM. The TGI in experiment [18] was 29 µM.

Turning to `O=C1Nc2ccc(Br)cc2/C1=N/N1C(=O)C(=O)N(C2CCCCC2)C1=S`, the TGI amounted to 18.4 µM in experiment [1]; 13.9 µM in [2]; 23.1 µM in experiment [3]; 23.1 µM in [4]; 7.23 µM in experiment [5]; 23.2 µM in experiment [6]. Further, the TGI is 7.91 µM in [7]; 14.6 µM in experiment [8]; 15.6 µM in experiment [9]; 13.5 µM in [10]; 19.9 µM in [12]; 15.4 µM in experiment [13]. The TGI came to 4.34 µM in experiment [20]; 69.1 µM in experiment [14]; 10.6 µM in [16]; 35 µM in [17]; 12.2 µM in experiment [18].

As to `CNC(=O)CNC(=O)N(C[C@@H]1CCCN1C(=O)[C@H](CC(C)C)NC(=O)OC(C)(C)C)C(C)C`, the TGI in experiment [1], in [2], in experiment [3], in experiment [4], in [5] and in experiment [6] was greater than 100 µM each time. The TGI in experiment [7], in experiment [8], in [9], in [19], in [10] and in [11] was greater than 100 µM each time. Further, the TGI in experiment [12], in [13], in experiment [20], in [14], in [15] and in experiment [16] was greater than 100 µM in each case. Besides, in [18], the TGI was greater than 100 µM.
